Results reported in US8404738B2 (Hoffmann-La Roche Inc., priority 2011, dated 2013).

Tests used:
recombinant human HDAC8 = molecular target: T1, recombinant human HDAC8 (Homo sapiens, UniProt Q9BY41); test: HDAC8 inhibition: recombinant HDAC8 fluorometric assay; format: biochemical; details: recombinant human HDAC8, substrate Ac-Arg-His-Lys-Lys(ε-acetyl)-AMC; read-out: HDAC8 IC50
T1 construct: made in house; host or cells: insect cells
T1 sequence (Q9BY41 1-377): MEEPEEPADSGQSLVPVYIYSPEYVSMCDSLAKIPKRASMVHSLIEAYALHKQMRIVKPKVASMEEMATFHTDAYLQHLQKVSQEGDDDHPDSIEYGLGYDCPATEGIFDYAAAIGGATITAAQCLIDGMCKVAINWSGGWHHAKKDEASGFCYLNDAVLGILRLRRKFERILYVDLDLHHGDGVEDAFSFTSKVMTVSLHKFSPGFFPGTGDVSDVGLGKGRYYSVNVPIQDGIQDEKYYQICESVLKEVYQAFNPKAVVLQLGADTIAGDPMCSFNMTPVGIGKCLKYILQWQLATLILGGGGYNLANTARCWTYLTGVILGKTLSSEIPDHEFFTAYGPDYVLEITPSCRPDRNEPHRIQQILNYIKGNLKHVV
In short: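 Recombinant human HDAC8 from insect cells was preincubated with compound for 15 min at rt, then given Ac-Arg-His-Lys-Lys(ε-acetyl)-AMC substrate for 30 min at rt. IC50 came from normalized percent inhibition with curve fitting.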

HDAC6 = molecular target: T2, HDAC6 (Homo sapiens, UniProt Q9UBN7); test: Tubulin acetylation cytoblot assay (A549 cells); format: cell-based; details: 17-18 h incubation, tubulin acetylation as marker of HDAC6 inhibition, read-out: Tub-Ac EC50
T2 construct: endogenous in cells; host or cells: A549 cells
T2 sequence (Q9UBN7 1-1215): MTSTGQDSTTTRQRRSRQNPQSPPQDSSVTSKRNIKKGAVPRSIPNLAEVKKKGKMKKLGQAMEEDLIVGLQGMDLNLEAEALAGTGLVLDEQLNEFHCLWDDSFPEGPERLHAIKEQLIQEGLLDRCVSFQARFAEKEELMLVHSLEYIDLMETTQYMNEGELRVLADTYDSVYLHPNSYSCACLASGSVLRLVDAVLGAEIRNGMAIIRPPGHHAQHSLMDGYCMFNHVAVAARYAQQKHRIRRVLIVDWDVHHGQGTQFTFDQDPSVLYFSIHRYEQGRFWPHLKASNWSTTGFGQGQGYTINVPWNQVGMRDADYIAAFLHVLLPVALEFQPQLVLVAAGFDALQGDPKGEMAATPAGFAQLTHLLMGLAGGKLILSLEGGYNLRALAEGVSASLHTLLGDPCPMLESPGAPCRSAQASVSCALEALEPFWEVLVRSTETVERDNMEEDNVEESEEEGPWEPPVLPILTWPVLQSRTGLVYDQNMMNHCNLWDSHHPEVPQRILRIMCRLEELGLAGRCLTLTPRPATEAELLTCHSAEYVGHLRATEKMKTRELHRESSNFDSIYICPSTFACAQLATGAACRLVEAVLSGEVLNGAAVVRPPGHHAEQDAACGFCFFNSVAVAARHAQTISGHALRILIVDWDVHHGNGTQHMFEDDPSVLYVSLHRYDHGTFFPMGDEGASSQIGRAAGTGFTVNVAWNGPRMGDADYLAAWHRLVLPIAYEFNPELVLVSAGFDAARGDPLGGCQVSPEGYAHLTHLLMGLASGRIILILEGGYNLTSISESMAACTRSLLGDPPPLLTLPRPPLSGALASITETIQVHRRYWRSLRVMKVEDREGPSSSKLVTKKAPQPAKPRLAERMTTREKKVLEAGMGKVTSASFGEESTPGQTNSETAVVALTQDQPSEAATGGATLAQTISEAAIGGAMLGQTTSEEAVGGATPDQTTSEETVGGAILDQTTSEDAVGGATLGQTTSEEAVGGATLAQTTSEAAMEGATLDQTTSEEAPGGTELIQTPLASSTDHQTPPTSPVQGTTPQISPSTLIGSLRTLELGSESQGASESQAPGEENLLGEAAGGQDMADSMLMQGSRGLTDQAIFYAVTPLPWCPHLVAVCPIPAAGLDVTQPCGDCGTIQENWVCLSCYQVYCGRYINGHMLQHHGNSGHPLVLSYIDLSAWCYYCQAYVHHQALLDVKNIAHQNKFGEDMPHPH
In short: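 Cells were exposed to compound for 17-18 h, then fixed with formaldehyde and permeabilized with cold MeOH. They were probed for 4 h at 4° C with anti-acetylated tubulin plus HRP anti-mouse IgG (each 1:750), and read by ECL luminescence. EC50 values came from curves normalized to top and bottom controls.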

RPMI-8226 = test: WST anti-proliferative assay, multiple myeloma cell line RPMI-8226; format: cell-based; details: Homo sapiens, RPMI8226 cells, 72 hours, CCK-8
Description: (§1) WST Anti-Proliferative Assay and Assessment of Growth Inhibitory of Novel Compounds in Multiple Myeloma Cell Lines.

OPM-2 = test: WST anti-proliferative assay, multiple myeloma cell line OPM-2; format: cell-based; details: Homo sapiens; OPM-2 cells, 72 hours, CCK-8
Description: as §1

[1] = tested on: p21 promoter-luciferase construct; test: p21 reporter gene induction (HeLa cells, p21 promoter-luciferase construct); details: for p21 RP3: relative gene level of p21 compared to MS275 at 3 μM; for p21 RP10: relative level of p21 compared to MS275 at 10 μM; for p21 RP30: relative level of p21 compared to MS275 at 30 μM;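 on all read-outs here: transfected HeLa cells exposed to compound for 15 h, luciferase luminescence read from lysates, p21 promoter lacks p53 site, proxy for cellular HDAC1/2/3 inhibition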
Description: As a surrogate for in-cell HDAC1/2/3 inhibition, p21 induction was used as a counterscreen to evaluate the selectivity of the compounds in the present invention toward HDAC6 or HDAC8.
The novel compounds of the present invention were tested for their ability to induce p21 gene expression using a reporter gene assay involving HeLa cells transfected with a p21 promoter-luciferase construct. The p21 promoter contained the Sp1/Sp3 binding site for HDAC but not the upstream p53 binding site. Briefly, the day before transfection, HeLa cells were seeded at 11,000 cells/well in a 96-well culture plate and incubated at 37° C. in 5% CO2 overnight. A transfection media was prepared prior to transfection according to the following procedure: (1) 5 μl serum-free DMEM, 0.15 μl Fugene 6 reagent, 40 ng p21-luc, 10 ng GFP were mixed gently and incubated at rt for 30 minutes; (2), then 98 μl DMEM (with 10% FBS, 1% penicillin and streptomycin) was added to the DNA: Fugene 6 reagent complex and mixed gently. For transfection, the medium was removed and replaced with 100 μl/well transfection media which was prepared according to the procedure above. After incubating the cells for 24 hours at 37° C. in 5% CO2, fresh media and test compounds were added to the wells and the cells further incubated for 15 hours at 37° C. in 5% CO2. Cells were lysed by adding 80 μl/well of a cell culture lysis reagent (Promega). 50 μl of each lysate was taken for GFP detection using an excitation wavelength of 486 nm and detection at 527 nm. 100 μl luciferase assay reagent (Promega) was then added to every 20 μl cell lysate for luminometer detection.

Structure (SMILES) | IC50 (recombinant human HDAC8) [nM] | EC50 (HDAC6) [nM] | IC50 (RPMI-8226) [nM] | IC50 (OPM-2) [nM] | p21 RP3 [1] | p21 RP10 [1] | p21 RP30 [1]
O=C(NO)c1ccc(NC2CCN(c3ccc(Cl)cc3)C2=O)cc1 (stereo not drawn) [Example 7, 4-[1-(4-Chloro-phenyl)-2-oxo-pyrrolidin-3-ylamino]-N-hydroxy-benzamide] | 550 | 1410 | 8790 | 5560 | −0.08 | 0.12 | 0.16
CC(C)(c1ccccc1)N1CCC(Nc2ccc(C(=O)NO)cc2)C1=O (stereo not drawn) [Example 47, N-Hydroxy-4-[1-(1-methyl-1-phenyl-ethyl)-2-oxo-pyrrolidin-3-ylamino]-benzamide] | 520 | 3020 | 4050 | 3620 | 0.05 | 0.09 | 0.29
CC1(Nc2ccc(C(=O)NO)cc2)CCN(c2ccc(Cl)cc2)C1=O (stereo not drawn) [Example 60, 4-[1-(4-Chloro-phenyl)-3-methyl-2-oxo-pyrrolidin-3-ylamino]-N-hydroxy-benzamide] | 920 | 530 | 8110 | 3940 | 0.80 | 0.16 | 0.07
O=C(NO)c1ccc(NC2CC(=O)N(c3ccc(F)cc3)C2)cc1 (stereo not drawn) [Example 70, 4-[1-(4-Fluoro-phenyl)-5-oxo-pyrrolidin-3-ylamino]-N-hydroxy-benzamide] | 200 | 1710 | 10700 | 6470 | −0.07 | 0.00 | 0.02
O=C(NO)c1ccc(NC2CC(=O)N(c3ccccc3Cl)C2)cc1 (stereo not drawn) [Example 71, 4-[1-(2-Chloro-phenyl)-5-oxo-pyrrolidin-3-ylamino]-N-hydroxy-benzamide] | 1010 | 810 | 5620 | 3460 | 0.13 | 0.06 | 0.04
O=C(NO)c1ccc(NC2CC(=O)N(c3ccc(Cl)cc3)C2)cc1 (stereo not drawn) [Example 73, 4-[1-(4-Chloro-phenyl)-5-oxo-pyrrolidin-3-ylamino]-N-hydroxy-benzamide] | 1040 | 1470 | 6490 | 4950 | 0.12 | 0.04 | 0.04
CC1(Nc2ccc(C(=O)NO)cc2)C(=O)N(c2cccc(Cl)c2)c2ccc(F)cc21 (stereo not drawn) [Example 98, 4-[1-(3-Chloro-phenyl)-5-fluoro-3-methyl-2-oxo-2,3-dihydro-1H-indol-3-ylamino]-N-hydroxy-benzamide] | 1690 | 190 |  |  | 2.13 | 3.06 | 0.00
CC1(Nc2ccc(C(=O)NO)cc2)C(=O)N(Cc2ccccc2Cl)c2ccc(F)cc21 (stereo not drawn) [Example 99, 4-[1-(2-Chloro-benzyl)-5-fluoro-3-methyl-2-oxo-2,3-dihydro-1H-indol-3-ylamino]-N-hydroxy-benzamide] | 1230 | 150 |  |  | 0.95 | 0.62 | 0.00
CC1(Nc2ccc(C(=O)NO)cc2)C(=O)N(c2cccc(Cl)c2)c2ccncc21 (stereo not drawn) [Example 100, 4-[1-(3-Chloro-phenyl)-3-methyl-2-oxo-2,3-dihydro-1H-pyrrolo[3,2-c]pyridin-3-ylamino]-N-hydroxy-benzamide] | 720 | 710 |  |  | 0.45 | 0.13 | 0.31
